We go through six molecules from patent publication US4370335A, “Antisecretory 4-diphenylmethyl-1-[(oxoalkyl)imino]methyl-piperidines and their derivatives” (McNeilab, Inc., priority 1982, dated 1983).

The ED50 is the dose that gives a 50% effect, or the effect in half of the subjects. A lower ED50 goes with an effect at a small dose.

Structures can show the parent of a compound that is named as a salt.

The subject of the assay is gastric acid secretion. Kind of assay: Acute Gastric Fistula, Rat: inhibition of gastric acid secretion (Total Acid Output). The class given is in vivo, Female Sprague-Dawley rats. Conditions: po, 1 h, one hour prior to surgery, dose for average 50% inhibition in Total Acid Output versus controls, collection at one hour. As for the experimental part: The compounds of the invention are useful for inhibition of gastric acid secretion as measured by the following test. Female Sprague-Dawley rats are fasted twenty-four hours before testing and are given water ad libidum while being kept in individual cages. On the day of testing, the rats are weighed and are selected so that the rats in each test weigh within a range ±20 grams.
Surgery is carried out under light ether anesthesia. As soon as the rat is anesthetized its teeth are removed and a mid-line incision is made on the abdomen about 11/2 inches in length and the stomach and duodenum are exposed. If at this point the stomach is filled with food or fecal material, the rat is discarded. If the condition of the stomach is acceptable, a purse string stitch is placed on the fundic portion of the stomach with a suture, taking care not to pierce any blood vessels in the area. A small nick is then made into the stomach in the center of the purse string, and a cannula, consisting of a small vinyl tube with a flange on one end, is put into the stomach, and the purse string stitch is closed tightly around the flange. The test compound is administered either intraduodenally (i.d.) immediately after surgery or orally (p.o.) one hour prior to surgery at doses generally ranging from about 0.25 to about 160 mg/kg in a volume of 0.5 ml/100 grams rat. Control rats receive the test vehicle, 0.5% aqueous methyl cellulose.
After the surgery and (in the case of i.d. administration) after administration of the test compound, the abdominal wall and skin are closed simultaneously with three or four 18 mm wound clips and a collecting tube is placed on the cannula. Each rat is then placed in a box in which a longitudinal slit has been made to allow the cannula to hang freely and to allow the rat to move about unencumbered. After the rat has been allowed to stabilize for thirty minutes, the collection tube on the cannula is discarded and replaced with a clean tube to receive the gastric juice. Collections are made at one hour. At the end of the study, the cannula is removed and the rat is sacrificed.
The sample of gastric contents collected is drained into a centrifuge tube and centrifuged to pack down the sediment. The volume is read and a 1 ml aliquot of the supernatant is put into a beaker containing 10 ml distilled water and is titrated to pH 7 using 0.01 N sodium hydroxide. Results are determined for Volume, Titratable Acid and Total Acid Output, where Volume equals total ml of gastric juice minus sediment; Titratable Acid (meq/l) equals amount of 0.01 N sodium hydroxide needed to titrate the acid to pH 7; and Total Acid Output equals Titratable Acid times Volume. Results are reported as the ED50 dose (mg/kg required to produce an average of 50% inhibition in Total Acid Output versus controls in all the animals tested for a particular compound) and as percent inhibition.
The results obtained for representative compounds of the invention by the above test for inhibition of gastric secretion are shown in Table I: […]
For `CC(=O)CCCCCCN=CN1CCC(C(c2ccccc2)c2ccccc2)CC1` [Example 2, 4-(Diphenylmethyl)-1-{[(7-oxooctyl)imino]methyl}piperidine (E)-2-Butenedioate (1:1) Hydrate (10:7)], the ED50 worked out at 14.7 mg/kg.

With `CC(=O)CN=CN1CCC(C(c2ccccc2)c2ccccc2)CC1` [Example 6, 4-Diphenylmethyl-1-[(2-oxopropyl)imino]methyl piperidine Hydrochloride (1:1) Hydrate (10:1)], it took a dose of 6.07 mg/kg to reach the 50% effect level (ED50).

Molecule `CC(CCCCCCN=CN1CCC(C(c2ccccc2)c2ccccc2)CC1)=NO` [Example 4, 4-(Diphenylmethyl)-1-{{[7-(hydroxyimino)octyl]imino}methyl}piperidine 2-Naphthalenesulfonate (1:1) Hydrate (5:1)] gave an ED50 of 12.3 mg/kg.

`CC(=O)CCCCCCCCN=CN1CCC(C(c2ccccc2)c2ccccc2)CC1` [Example 5] came in with an ED50 of 4.76 mg/kg.

In turn, `CC1(CCCCCCN=CN2CCC(C(c3ccccc3)c3ccccc3)CC2)OCCO1` [Example 1, 4-(Diphenylmethyl)-1-{{[6-(2-methyl-1,3-dioxolan-2-yl)hexyl]imino}methyl}piperidine (E)-2-Butenedioate (1:1) Hydrate (10:7)] showed an ED50 of 3.14 mg/kg.

Molecule `CC(O)CCCCCCN=CN1CCC(C(c2ccccc2)c2ccccc2)CC1` (stereo not drawn) [Example 3, 4-(Diphenylmethyl)-1-{[(7-hydroxyoctyl)imino]methyl}piperidine 2-Naphthalenesulfonate (1:1) Hydrate (4:1)] displayed an ED50 of 78.1 mg/kg.
